The record followed here is patent US12497365B2, “4-pyridinyl formamide compound or derivative thereof, preparation method therefor, herbicidal composition and use thereof” (Qingdao Kingagroot Chemical Compound Co., Ltd., priority 2019, dated 2025).

What all share (test): Weeding effect in post-emergence stage
Holding throughout (type): in vivo
Holding throughout (conditions): active ingredient 2000 g/ha, 3 weeks after application, fresh weight control rate

One experiment has as its system Abutilon theophrasti. Summed up: (§1)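 Greenhouse-grown weeds at the 2-3 leaf stage, about 2 weeks after sowing, were sprayed with compound at 2000-125 g/ha. The spray solution was made from acetone with Tween 80 and 1.5 L/ha methyl oleate concentrate as synergist. Fresh-weight growth control was scored 3 weeks after treatment.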
The subject of the next experiment is Descurainia sophia. Summed up: as §1
The subject of a further experiment is Chenopodium album. Summed up:
as §1

Experiment [1] relates to Amaranthus retroflexus L. Summed up:
as §1

As to `Cn1nnnc1NC(=O)c1ccnc(-c2cc(F)c(F)c(F)c2)c1Cl` [Compound 1-109], the “Weeding effect, activity level (growth control rate), Abutilon theophrasti” value (shortened to “Weeding effect … Abutilon theophrasti”) in the experiment with Abutilon theophrasti was 5 (Level 5: growth control rate is above 85%). The “Weeding effect, activity level (growth control rate), Descurainia sophia” value (“Weeding effect … Descurainia sophia” for short) in the experiment on Descurainia sophia is 5 (Level 5: growth control rate is above 85%). For the same compound, the “Weeding effect, activity level (growth control rate), Chenopodium album” value (from here on “Weeding effect … Chenopodium album”) in the experiment on Chenopodium album is 5 (Level 5: growth control rate is above 85%). Also, in experiment [1], the “Weeding effect, activity level (growth control rate), Amaranthus retroflexus L.” value (“Weeding effect … Amaranthus retroflexus L.” for short) was 5 (Level 5: growth control rate is above 85%).

Take `CCc1ccccc1-c1nccc(C(=O)Nc2nnnn2C)c1Cl` [Compound 1-12]: the “Weeding effect … Abutilon theophrasti” value in the experiment with Abutilon theophrasti was 5 (Level 5: growth control rate is above 85%). In addition, in the experiment on Descurainia sophia, the “Weeding effect … Descurainia sophia” value was 5 (Level 5: growth control rate is above 85%). In the experiment with Chenopodium album, the “Weeding effect … Chenopodium album” value is recorded as 5 (Level 5: growth control rate is above 85%). For the same compound, the “Weeding effect … Amaranthus retroflexus L.” value in experiment [1] is listed as 5 (Level 5: growth control rate is above 85%).

With `Cn1nnnc1NC(=O)c1ccnc(-c2ccc(C#N)cn2)c1Cl` [Compound 1-121], the “Weeding effect … Abutilon theophrasti” value in the experiment with Abutilon theophrasti is on record as 5 (Level 5: growth control rate is above 85%). Besides, the “Weeding effect … Descurainia sophia” value with Descurainia sophia is recorded as 5 (Level 5: growth control rate is above 85%). The “Weeding effect … Chenopodium album” value in the experiment on Chenopodium album is given as 5 (Level 5: growth control rate is above 85%). In addition, the “Weeding effect … Amaranthus retroflexus L.” value in experiment [1] was 5 (Level 5: growth control rate is above 85%).

For `Cn1nnnc1NC(=O)c1ccnc(-c2cscn2)c1Cl` [Compound 1-228], the “Weeding effect … Abutilon theophrasti” value in the experiment on Abutilon theophrasti is 5 (Level 5: growth control rate is above 85%). Besides, the “Weeding effect … Descurainia sophia” value in the experiment on Descurainia sophia is listed as 5 (Level 5: growth control rate is above 85%). Moreover, the “Weeding effect … Chenopodium album” value with Chenopodium album is given as 5 (Level 5: growth control rate is above 85%). In experiment [1], the “Weeding effect … Amaranthus retroflexus L.” value is given as 5 (Level 5: growth control rate is above 85%).

`CC(=O)c1ccc(-c2nccc(C(=O)Nc3nnnn3C)c2Cl)s1` [Compound 1-191]: in the experiment with Abutilon theophrasti, the “Weeding effect … Abutilon theophrasti” value is 5 (Level 5: growth control rate is above 85%). In addition, in the experiment with Descurainia sophia, the “Weeding effect … Descurainia sophia” value was 5 (Level 5: growth control rate is above 85%). In addition, the “Weeding effect … Chenopodium album” value in the experiment with Chenopodium album was 5 (Level 5: growth control rate is above 85%). In addition, in experiment [1], the “Weeding effect … Amaranthus retroflexus L.” value is reported as 5 (Level 5: growth control rate is above 85%).

Consider `Cn1nnnc1NC(=O)c1ccnc(-c2cnoc2)c1Cl` [Compound 1-193], for which the “Weeding effect … Abutilon theophrasti” value in the experiment with Abutilon theophrasti is on record as 5 (Level 5: growth control rate is above 85%). Further, the “Weeding effect … Descurainia sophia” value in the experiment on Descurainia sophia was 5 (Level 5: growth control rate is above 85%). Moreover, the “Weeding effect … Chenopodium album” value in the experiment on Chenopodium album is given as 5 (Level 5: growth control rate is above 85%). The “Weeding effect … Amaranthus retroflexus L.” value in experiment [1] is 5 (Level 5: growth control rate is above 85%).

Consider `Cn1nnnc1NC(=O)c1ccnc(C(C)(C)C)c1Cl` [Compound 1-2], for which the “Weeding effect … Abutilon theophrasti” value with Abutilon theophrasti was 5 (Level 5: growth control rate is above 85%). Besides, the “Weeding effect … Descurainia sophia” value in the experiment on Descurainia sophia was 5 (Level 5: growth control rate is above 85%). Further, the “Weeding effect … Chenopodium album” value with Chenopodium album is given as 5 (Level 5: growth control rate is above 85%). Also, the “Weeding effect … Amaranthus retroflexus L.” value in experiment [1] is 5 (Level 5: growth control rate is above 85%).

In the case of `Cn1nnnc1NC(=O)c1ccnc(Nc2ccccc2)c1Cl` [Compound 1-2075], the “Weeding effect … Abutilon theophrasti” value in the experiment with Abutilon theophrasti is 5 (Level 5: growth control rate is above 85%). For the same compound, the “Weeding effect … Descurainia sophia” value in the experiment on Descurainia sophia is 5 (Level 5: growth control rate is above 85%). Also, the “Weeding effect … Chenopodium album” value in the experiment on Chenopodium album is given as 5 (Level 5: growth control rate is above 85%). Moreover, in experiment [1], the “Weeding effect … Amaranthus retroflexus L.” value is given as 5 (Level 5: growth control rate is above 85%).

Consider `CC(C)Sc1ccc(-c2nccc(C(=O)Nc3nnnn3C)c2Cl)cc1` [Compound 1-43], for which the “Weeding effect … Abutilon theophrasti” value in the experiment with Abutilon theophrasti is 5 (Level 5: growth control rate is above 85%). Further, the “Weeding effect … Descurainia sophia” value with Descurainia sophia was 5 (Level 5: growth control rate is above 85%). Further, in the experiment on Chenopodium album, the “Weeding effect … Chenopodium album” value is recorded as 5 (Level 5: growth control rate is above 85%). Further, the “Weeding effect … Amaranthus retroflexus L.” value in experiment [1] is 5 (Level 5: growth control rate is above 85%).

Regarding `Cn1nnnc1NC(=O)c1ccnc(-c2cccc(S(C)(=O)=O)c2)c1Cl` [Compound 1-44], the “Weeding effect … Abutilon theophrasti” value with Abutilon theophrasti is reported as 5 (Level 5: growth control rate is above 85%). In addition, the “Weeding effect … Descurainia sophia” value in the experiment on Descurainia sophia is reported as 5 (Level 5: growth control rate is above 85%). Besides, the “Weeding effect … Chenopodium album” value in the experiment with Chenopodium album is listed as 5 (Level 5: growth control rate is above 85%). For the same compound, the “Weeding effect … Amaranthus retroflexus L.” value in experiment [1] is given as 5 (Level 5: growth control rate is above 85%).

In the case of `Cn1nnnc1NC(=O)c1ccnc(-c2ccc(C(F)(F)F)cc2C(F)(F)F)c1Cl` [Compound 1-76], in the experiment with Abutilon theophrasti, the “Weeding effect … Abutilon theophrasti” value is on record as 5 (Level 5: growth control rate is above 85%). Moreover, the “Weeding effect … Descurainia sophia” value in the experiment on Descurainia sophia was 5 (Level 5: growth control rate is above 85%). For the same compound, the “Weeding effect … Chenopodium album” value in the experiment with Chenopodium album is recorded as 5 (Level 5: growth control rate is above 85%). For the same compound, the “Weeding effect … Amaranthus retroflexus L.” value in experiment [1] is 5 (Level 5: growth control rate is above 85%).

On to `Cn1nnnc1NC(=O)c1ccnc(-c2cncc(N)c2)c1Cl` [Compound 1-145], for which the “Weeding effect … Abutilon theophrasti” value in the experiment on Abutilon theophrasti was 5 (Level 5: growth control rate is above 85%). In addition, the “Weeding effect … Descurainia sophia” value with Descurainia sophia is listed as 5 (Level 5: growth control rate is above 85%). Besides, the “Weeding effect … Chenopodium album” value with Chenopodium album was 5 (Level 5: growth control rate is above 85%). The “Weeding effect … Amaranthus retroflexus L.” value in experiment [1] was 5 (Level 5: growth control rate is above 85%).

`Cn1nnnc1NC(=O)c1ccnc(-c2ccc(Br)nc2)c1Cl` [Compound 1-131]: the “Weeding effect … Abutilon theophrasti” value with Abutilon theophrasti is reported as 5 (Level 5: growth control rate is above 85%). Besides, the “Weeding effect … Descurainia sophia” value in the experiment with Descurainia sophia is on record as 5 (Level 5: growth control rate is above 85%). For the same compound, the “Weeding effect … Chenopodium album” value in the experiment on Chenopodium album is reported as 5 (Level 5: growth control rate is above 85%). The “Weeding effect … Amaranthus retroflexus L.” value in experiment [1] was 5 (Level 5: growth control rate is above 85%).

On to `Cn1nnnc1NC(=O)c1ccnc(-c2ccc(-c3ccccc3)cc2)c1Cl` [Compound 1-53], for which the “Weeding effect … Abutilon theophrasti” value with Abutilon theophrasti was 5 (Level 5: growth control rate is above 85%). For the same compound, the “Weeding effect … Descurainia sophia” value in the experiment with Descurainia sophia was 5 (Level 5: growth control rate is above 85%). Also, the “Weeding effect … Chenopodium album” value in the experiment on Chenopodium album is reported as 5 (Level 5: growth control rate is above 85%). The “Weeding effect … Amaranthus retroflexus L.” value in experiment [1] is reported as 5 (Level 5: growth control rate is above 85%).

For `Cn1nnnc1NC(=O)c1ccnc(-c2ccc3c(c2)oc2ccccc23)c1Cl` [Compound 1-117], the “Weeding effect … Abutilon theophrasti” value in the experiment on Abutilon theophrasti is 5 (Level 5: growth control rate is above 85%). Moreover, in the experiment with Descurainia sophia, the “Weeding effect … Descurainia sophia” value was 5 (Level 5: growth control rate is above 85%). Also, the “Weeding effect … Chenopodium album” value in the experiment with Chenopodium album is given as 5 (Level 5: growth control rate is above 85%). Moreover, the “Weeding effect … Amaranthus retroflexus L.” value in experiment [1] is recorded as 5 (Level 5: growth control rate is above 85%).

`CCCC1CCC(c2ccc(-c3nccc(C(=O)Nc4nnnn4C)c3Cl)cc2)CC1` (centres unmarked) [Compound 1-14]: the “Weeding effect … Abutilon theophrasti” value in the experiment with Abutilon theophrasti was 5 (Level 5: growth control rate is above 85%). In addition, in the experiment on Descurainia sophia, the “Weeding effect … Descurainia sophia” value was 5 (Level 5: growth control rate is above 85%). Besides, the “Weeding effect … Chenopodium album” value in the experiment with Chenopodium album was 5 (Level 5: growth control rate is above 85%). Moreover, the “Weeding effect … Amaranthus retroflexus L.” value in experiment [1] is given as 5 (Level 5: growth control rate is above 85%).

As for `CCCCCc1ccc(-c2nccc(C(=O)Nc3nnnn3C)c2Cl)cc1` [Compound 1-13], the “Weeding effect … Abutilon theophrasti” value with Abutilon theophrasti is 5 (Level 5: growth control rate is above 85%). In the experiment on Descurainia sophia, the “Weeding effect … Descurainia sophia” value is recorded as 5 (Level 5: growth control rate is above 85%). Moreover, in the experiment with Chenopodium album, the “Weeding effect … Chenopodium album” value was 5 (Level 5: growth control rate is above 85%). Besides, the “Weeding effect … Amaranthus retroflexus L.” value in experiment [1] is reported as 5 (Level 5: growth control rate is above 85%).
